From patent US9862748B2, “Peptide compounds and methods of production and use thereof” (priority 2012, dated 2018)
Where two headings read alike, the source gives them in different places. Square brackets hold non-standard residues; d marks the D form. Ends that are not written are not given here. Peptide text beside a SMILES is read from it. AEEA = NCCOCCOCC(=O)O

Experiments:
[1] = tested on: swine skin wounds; assay: Swine full thickness excisional dermal wound model, wound area; format: in vivo; details: for Mean Wound Healing (%) Day 0 / Mean Wound Healing (%) Day 3 / Mean Wound Healing (%) Day 5 / Mean Wound Healing (%) Day 7 / Mean Wound Healing (%) Day 10 / Mean Wound Healing (%) Day 14: 3 mg/ml, 0.20 ml per wound, reapplied daily; for dermal wound healing: topical 3 mg/ml over 14 days, vs saline
Protocol: In this Example, peptide compounds of the presently disclosed and claimed inventive concept(s) were evaluated as to their activity on the dermal wound healing process in a clinically relevant swine full thickness excisional wound model. Three different peptide formulations (Group B, Peptide 95-122 (SEQ ID NO: 26); Group C, Peptide 120-146WH (SEQ ID NO: 31); and Group D, Peptide 120-146QH-5RMP (SEQ ID NO: 33)) were each evaluated at the same concentration (3 mg/ml). Sterile saline served as the control (Group A).
(§1) Full thickness excisional wounds were induced on the dorsum of swine (N=3) using a 1.0 cm biopsy punch. Treatments were administered (0.20 ml) to each wound (N=6 wounds per group), and the wounds were dressed with standard occlusive dressing ([…]™, 3M Corporation, St. Paul, Minn.). Treatments were reapplied daily and dressings changed. Clinical wound healing observations and wound area (2 mm) measurements were performed on days 0, 3, 5, 7, 10, and 14 post-wounding. Wound area (2 mm) data were expressed as percentage (%) of wound healing. Animals were terminated on day 14 with wounds harvested and processed for histological evaluation. […] All peptide formulation treatment groups healed faster with greater rate of closure and re-epithelialization over time, as compared to the saline control (Group A).

[2] = tested on: swine skin wounds; assay: Swine dermal wound model, histological evaluation; format: in vivo; details: day 14 post-wounding; for Histopathology Results, Mean Angiogenesis / Histopathology Results, Mean Epithelization / Histopathology Results, Mean Granulation / Histopathology Results, Mean Inflammation: 3 mg/ml
Protocol: The characteristics that were measured are required to indicate features of a well-healed wound. Inflammation should be low and re-epithelialization high.
as §1
The histology correlated with the clinical observations. […] There were minimal differences in the amount or character of granulation tissue, inflammation, and angiogenesis. All the wounds were well filled and vascularized.

[3] = tested on: Pseudomonas aeruginosa ATCC® 27853™; format: cell-based; design: Effects of Peptide Compounds on Pseudomonas aeruginosa ATCC ® 27853 ™: unit not given here; details: for Effects of Peptide Compounds on Pseudomonas aeruginosa ATCC ® 27853 ™: Table 6; for effectiveness against Pseudomonas aeruginosa compared with gentamicin, pH 7.2: peptide at 25 VIM (so in the source); for activity against P. aeruginosa: 120-146WR at 25 μM
Protocol: (§2) In vitro bactericidal activity: The three peptide compounds BCC01-5RMP (SEQ ID NO: 21), BCC02-5RMP (SEQ ID NO: 22), and BCC03-5RMP (SEQ ID NO: 23) were assayed for in vitro bactericidal activity against Pseudomonas aeruginosa, Escherichia coli, Salmonella typhimurium, and Acinetobacter baumannii. The starting inoculum for all experiments was 1×10^6 colony forming units (CFU)/ml. The CFU remaining at the end of 60 to 180 minute incubation was determined, and the data plotted as a log reduction in CFU/ml.
(§3) For FIGS. 10-13, in vitro bactericidal assays were performed using a starting inoculum of 1×10^6 CFU/ml of the bacterial suspension. The CFU remaining at the end of the 60-180 minute incubation was determined, and the data was plotted as log reduction in CFU/ml.
(§4) In particular, each of the test peptides (CAP37 peptides 120-146WR, 120-146WH, and 95-122 (SEQ ID NOs: 30, 31, and 26, respectively)) was used at 25, 12.5, 6.25, and 3.12 μM. Gentamicin was used at 4 μg/ml. 1×10^6/ml Acinetobacter baumannii ATCC® BAA-747™ or Pseudomonas aeruginosa ATCC® 27853™ (American Type Culture Collection, Manassas, Va.) were incubated with the peptides, negative buffer control (tryptone saline), and positive control gentamicin at pH 5.5 or 7.2. A 60 minute incubation was used for Acinetobacter baumannii ATCC® BAA-747™, while a 180 minute incubation was used for Pseudomonas aeruginosa ATCC® 27853™. 50 μl aliquots were plated out on agar plates and incubated overnight. Colony forming units were counted after overnight incubation and CFU/ml calculated.
For FIG. 14, 1×10^6/ml Pseudomonas aeruginosa ATCC® 27853™ were incubated with each of the test peptides (CAP37 peptides 120-146WR, 120-146WH, 120-146QR, 120-146QH, 120-146QR-5RMP, and 120-146QH-5RMP (SEQ ID NOs: 30, 31, 28, 29, 32, and 33, respectively)) at 150, 75, and 37.5 μg/ml, or negative buffer control (tryptone saline), for 180 minutes at pH 5.5. 50 μl aliquots were plated out on agar plates and incubated overnight. Colony forming units were counted after overnight incubation and CFU/ml calculated.

[4] = tested on: E. coli ATCC® strain 25922™; format: cell-based, Escherichia coli; design: unit not given here; details: Table 6
Protocol: as §2

[5] = tested on: Pseudomonas clinical isolate B64; assay: BIOSCREEN C growth assay / MIC, antibiotic in combination with peptide; format: cell-based, P. aeruginosa; details: for MIC, antibiotic alone: clinical isolate of P. aeruginosa, 1×10^5 CFU/well, 24 hours
Protocol: The peptide and antibiotics were set up in the wells of the microtiter plate at starting ratios of MIC equivalents of antibiotic:peptide at 3:1, 1:1, and 1:3. They were serially diluted to concentrations well below suboptimal/sublethal levels of the antibiotic and peptide. The organism was added (1×10^5 CFU/well), the BIOSCREEN C™ assay (Growth Systems USA, Piscataway, N.J.) was performed, and data was collected over 24 hours.

[6] = tested on: mouse cornea (corneal epithelial abrasion); assay: In vivo model of corneal wound healing; details: treated at 0 and 16 hours; 95-122 10^−5 M; 120-146WH 10^−8 M or 10^−6 M; HB-EGF 250 ng/ml
Protocol: The in vivo model of wound healing was carried out using a disposable biopsy punch (2 mm, Miltex, York, Pa.) to demarcate the mouse cornea and a 0.5 mm burr using the AlgerBrush II (The Alger Company, Inc., Lago Vista, Tex.) to remove the corneal epithelium.
Mice were anesthetized using ketamine (100 mg/kg; Bionichepharma, LLC., St. Lake Forrest, Ill.) and xylazine ([…]; Rompun; Bayer Corp., Shawnee Mission, Kans.), and the right cornea was wounded as follows. A disposable biopsy punch (2 mm, Miltex, York, Pa.) was used to demarcate the mouse cornea. The corneal epithelium was carefully removed within the 2 mm demarcated area with a 0.5 mm burr using the AlgerBrush II (The Alger Company, Inc., Lago Vista, Tex.). The corneal abrasions were treated at 0 and 16 hours with HB-EGF (250 ng/ml), rCAP37 (250 ng/ml), or vehicle control (0.9% sodium chloride, pH 5.5, Baxter, Deerfield, Ill.). Corneal abrasions were visualized using sterile fluorescein sodium ophthalmic strips USP (FLUORETS®, Chauvin Laboratory, Aubenas, France) dampened with sterile PBS. Images were taken at 0, 16, 24, and 48 hours immediately following fluorescein staining using a surgical microscope equipped with a camera (Carl Zeiss OPMI VISU 140, Carl Zeiss Surgical, Inc., Oberkochen, Germany). The areas of the open wound were quantitated using ImageJ software (US National Institutes of Health), and the results were reported as the percentage of wound closure.
Whole mouse eyes were collected for histology at 0, 6, 16, 24, and 48 hours post wounding and were immediately placed in Prefer fixative (Anatech LTD., Battle Creek, Mich.) for 20 minutes before being transferred to 70% ethanol. Tissues were paraffin-embedded and cut at a thickness of 5 μm, mounted on SUPERFROSTPLUS® slides (Statlab Medical Products, Lewisville, Tex.), and subsequently deparaffinized, rehydrated, and washed in deionized water. Sections were stained with hematoxylin (Leica Microsystems, Buffalo Grove, Ill.) and rinsed twice in deionized water before being washed in Blue Buffer (Leica Microsystems). The sections were finally washed in deionized water and 95% ethanol prior to being counterstained with eosin (Leica Microsystems). Sections were dehydrated in ethanol and cleared in xylene.

[7] = tested on: Acinetobacter baumannii ATCC® BAA-747™; format: cell-based
Protocol: as §2, §3, §4

## CC(C)C[C@H](NC(=O)[C@H](CCCNC(=N)N)NC(=O)CNC(=O)CNC(=O)[C@H](CO)NC(=O)[C@H](Cc1c[nH]cn1)NC(=O)[C@H](CCC(N)=O)NC(=O)[C@H](CO)NC(=O)CNC(=O)[C@H](Cc1c[nH]c2ccccc12)NC(=O)CNC(=O)[C@H](C)NC(=O)[C@@H](NC(=O)[C@H](CCC(N)=O)NC(=O)[C@H](CS)NC(=O)[C@H](CCCNC(=N)N)NC(=O)[C@@H](NC(=O)CNC(=O)[C@H](CCCNC(=N)N)NC(=O)[C@H](CCCNC(=N)N)NC(=O)[C@H](CCCNC(=N)N)NC(=O)[C@H](CCCNC(=N)N)NC(=O)COCCOCCNC(=O)COCCOCCN)[C@@H](C)O)C(C)C)C(=O)N[C@@H](CO)C(=O)N[C@@H](CCCNC(=N)N)C(=O)N[C@@H](Cc1ccccc1)C(=O)N1CCC[C@H]1C(=O)N[C@@H](CCCNC(=N)N)C(=O)N[C@@H](Cc1ccccc1)C(=O)N[C@H](C(=O)N[C@@H](CC(N)=O)C(=O)N[C@H](C(=O)N[C@@H](CCCNC(=N)N)C(=O)O)C(C)C)C(C)C [120-146QH-5RMP] (H-[AEEA][AEEA]RRRRGTRCQVAGWGSQHSGGRLSRFPRFVNVR-OH; N-terminus and C-terminus assumed)
[1]
  Mean Wound Healing (%) Day 0: 0.0%
  Mean Wound Healing (%) Day 3: 22.5%
  Mean Wound Healing (%) Day 5: 34.1%
  Mean Wound Healing (%) Day 7: 64.1%
  Mean Wound Healing (%) Day 10: 93.7%
  Mean Wound Healing (%) Day 14: 98.0%
  dermal wound healing: accelerate dermal wound healing
[2]
  epidermal resurfacing and maturation of the epidermis versus saline control: greater extent of epidermal resurfacing and maturation of the epidermis
  Histopathology Results, Mean Angiogenesis: 1.3
  Histopathology Results, Mean Epithelization: 4.0
  Histopathology Results, Mean Granulation: 4.0
  Histopathology Results, Mean Inflammation: 0.5

## CC[C@H](C)[C@H](NC(=O)[C@H](CC(C)C)NC(=O)[C@H](C)NC(=O)CNC(=O)CNC(=O)[C@H](CS)NC(=O)[C@H](Cc1ccccc1)NC(=O)[C@H](Cc1c[nH]cn1)NC(=O)[C@H](CCCNC(=N)N)NC(=O)CNC(=O)[C@H](CCC(N)=O)NC(=O)[C@H](CC(N)=O)NC(=O)COCCOCCNC(=O)COCCOCCN)C(=O)N[C@@H](Cc1c[nH]cn1)C(=O)N[C@@H](C)C(=O)N[C@@H](CCCNC(=N)N)C(=O)N[C@@H](Cc1ccccc1)C(=O)N[C@H](C(=O)N[C@@H](CCSC)C(=O)N[C@H](C(=O)N[C@@H](C)C(=O)N[C@@H](C)C(=O)N[C@@H](CO)C(=O)N[C@@H](CO)C(=O)N[C@@H](Cc1ccccc1)C(=O)N[C@@H](CCC(N)=O)C(=O)O)[C@@H](C)O)C(C)C [BCC03-MP] (H-[AEEA][AEEA]NQGRHFCGGALIHARFVMTAASSFQ-OH; N-terminus and C-terminus assumed)
[3]; Peptide Conc 12.5 μg/ml
  Effects of Peptide Compounds on Pseudomonas aeruginosa ATCC ® 27853 ™: −45.6
[3]; Peptide Conc 50 μg/ml
  Effects of Peptide Compounds on Pseudomonas aeruginosa ATCC ® 27853 ™: −2.9
[3]; Peptide Conc 100 μg/ml
  Effects of Peptide Compounds on Pseudomonas aeruginosa ATCC ® 27853 ™: 44.0
[4]; Peptide Conc 6.25 μg/ml
  Effects of Peptide Compounds on Escherichia coli ATCC ® 25922 ™: 6.4
[4]; Peptide Conc 200 μg/ml
  Effects of Peptide Compounds on Escherichia coli ATCC ® 25922 ™: 46.0

## CO/N=C(\C(=O)N[C@@H]1C(=O)N2C(C(=O)O)=C(COC(C)=O)CS[C@H]12)c1csc(N)n1 [Cefotaxime, reference compound]
[5]; 2.8 μg/ml of Cefotaxime
  bactericidal impact of antibiotic alone at sublethal concentration: very little bactericidal impact
[5]
  MIC, antibiotic alone: 15 µg/mL

## C[C@H]1COc2c(N3CCN(C)CC3)c(F)cc3c(=O)c(C(=O)O)cn1c23 [Levofloxacin, reference compound]
[5]
  MIC, antibiotic alone: 15 µg/mL

## GTRCQVAGWGSWHSGGRLSRFPRFVNV [Peptide 120-146WH]
[6]
  corneal wound healing versus vehicle: significantly greater
[3]; gentamicin 4 μg/ml
  effectiveness against Pseudomonas aeruginosa compared with gentamicin, pH 7.2: as effective as the standard antibiotic gentamicin
[1]
  Mean Wound Healing (%) Day 0: 0.0%
  Mean Wound Healing (%) Day 3: 22.1%
  Mean Wound Healing (%) Day 5: 35.9%
  Mean Wound Healing (%) Day 7: 59.7%
  Mean Wound Healing (%) Day 10: 93.5%
  Mean Wound Healing (%) Day 14: 97.5%
  dermal wound healing: accelerate dermal wound healing
[2]
  epidermal resurfacing and maturation of the epidermis versus saline control: greater extent of epidermal resurfacing and maturation of the epidermis
  Histopathology Results, Mean Angiogenesis: 1.7
  Histopathology Results, Mean Epithelization: 3.7
  Histopathology Results, Mean Granulation: 4.0
  Histopathology Results, Mean Inflammation: 0.5
[7]
  activity against A. baumannii at 25 μM: highly active

## GTRCQVAGWGSWRSGGRLSRFPRFVNV [Peptide 120-146WR]
[3]; gentamicin 4 μg/ml
  activity against P. aeruginosa: highly active
  effectiveness against Pseudomonas aeruginosa compared with gentamicin, pH 7.2: as effective as the standard antibiotic gentamicin
[7]; 12.5 μM
  activity against A. baumannii at 12.5 μM: highly active
[7]
  activity against A. baumannii at 25 μM: highly active

## gentamicin [reference compound]
[3]; gentamicin 4 μg/ml
  activity against P. aeruginosa: highly active
[3]; gentamicin 4 μg/ml, 180 minutes, FIG. 13
  log reduction of CFU/ml, Pseudomonas aeruginosa, pH 5.5: 2 log
[7]; gentamicin 4 μg/ml, 60 minutes
  activity against Acinetobacter baumannii at pH 5.5: unable to kill the bacteria
  activity against Acinetobacter baumannii at pH 7.2: active against the bacteria
